Experimental findings from patent US11524950B2, “Treatment of immune-related and inflammatory diseases” (Celgene Corporation, priority 2012, dated 2022) are described below.

Assay [1] deals with MIP-1β. As to the kind of experiment: LPS-stimulated hPBMC cytokine production: MIP-1β. It counts as cell-based. Particulars: Homo sapiens; LPS 1 ng/ml, 18 hours. The procedure:
50 ml human buffy coat was aliquoted 25 ml each into two 50 ml conical tubes and 25 ml sterile HBSS was added to each conical tube. The tubes were gently mixed by inverting. […] Then 25 ml of the Buffy coat/HBSS mixture was layered gently and slowly on top of the Ficoll. The samples were centrifuged at 450 rpm for 35 minutes. The top layered containing plasma was pipetted off and discarded. The interface containing mononuclear cells was transferred into two 50 ml conical tubes. Both conical tubes were filled to total volume of 50 ml with HBSS and centrifuged at 1200 rpm for 10 minutes. The cells were washed again in HBSS and spun at 1000 rpm for 10 minutes. Cell pellet was resuspended with 20 ml RPMI complete medium (RPMI/5% human sera/1× pen/strep/glut) and counted.
Cells were then stimulated with […] 2.5 ng/ml LPS ([LPS]final=1 ng/ml) and incubated for 18 hours at 37° C.
(§1) 50 μl supernatant from each well was transferred into 3 new round-bottomed 96 well plates and stored at −20° C. for Luminex analysis. Duplicate wells were performed for each sample.
IL-12 and GM-CSF analyses were done in a two-plex format using neat supernatants while all other cytokines were done in a multiplex format using supernatants diluted 1:20. Data analysis was performed using Upstate Beadview software. […] The IC50 were performed using GraphPad Prism v5.00. The data values represent the mean±SEM (standard error of the mean) of n (number of experiments in duplicate).

Assay [2] relates to TNF-α. As to the kind of experiment: LPS-stimulated hPBMC cytokine production: TNF-α. It counts as cell-based. Particulars: Homo sapiens; LPS 1 ng/ml, 18 hours. The procedure: (§2) 50 ml human buffy coat was aliquoted 25 ml each into two 50 ml conical tubes and 25 ml sterile HBSS was added to each conical tube. The tubes were gently mixed by inverting. Fifteen ml of room temperature Ficoll-Paque Plus (GE Healthcare (location); cat #17-1440-02) was aliquoted into four 50 ml conical tubes. Then 25 ml of the Buffy coat/HBSS mixture was layered gently and slowly on top of the Ficoll. The samples were centrifuged at 450 rpm for 35 minutes. The top layered containing plasma was pipetted off and discarded. The interface containing mononuclear cells was transferred into two 50 ml conical tubes. Both conical tubes were filled to total volume of 50 ml with HBSS and centrifuged at 1200 rpm for 10 minutes. The cells were washed again in HBSS and spun at 1000 rpm for 10 minutes. Cell pellet was resuspended with 20 ml RPMI complete medium (RPMI/5% human sera/1× pen/strep/glut) and counted.
(§3) One hundred μl (2×10^6/ml) of hPBMCs were added to each well of a 96 well flat-bottom plate (final cell count=2×10^5/well) and incubated at 37° C. for 1 hour. […] compound was added to each test well and twenty μl medium containing 2.5% DMSO was added to each control well ([DMSO]final=0.25%) and plate was incubated for 1 hour at 37° C. Cells were then stimulated with […] 2.5 ng/ml LPS ([LPS]final=1 ng/ml) and incubated for 18 hours at 37° C.
as §1
(§4) Supernatant samples were analyzed for cytokines in multiplex format according to the manufacturer's instructions (Millipore, Billerica, Ma 01821) using a Luminex IS100 instrument. IL-12 and GM-CSF analyses were done in a two-plex format using neat supernatants while all other cytokines were done in a multiplex format using supernatants diluted 1:20. Data analysis was performed using Upstate Beadview software. […] The IC50 were performed using GraphPad Prism v5.00. […]

Assay [3] concerns GM-CSF. As to the kind of experiment: LPS-stimulated hPBMC cytokine production: GM-CSF. The assay is classed as cell-based. As to conditions: Homo sapiens. How it is done: as §2, §3, §1, §4
For assay [4], the system named is RANTES. As to the kind of experiment: LPS-stimulated hPBMC cytokine production: RANTES enhancement. It counts as cell-based, human. Particulars: at 0.1 μM. How it is done:
as §2, §3, §1, §4

Assay [5] has as its system MCP-1. As to the kind of experiment: LPS-stimulated hPBMC cytokine production: MCP-1 enhancement. The assay is classed as cell-based, human. Particulars: at 0.1 μM. The procedure: as §2, §3, §1, §4
Assay [6] relates to IL-8. As to the kind of experiment: LPS-stimulated hPBMC cytokine production: IL-8. The assay is classed as cell-based. As to conditions: Homo sapiens; LPS 1 ng/ml, 18 hours. The procedure: as §2, §3, §1, §4
Assay [7] deals with Human umbilical vascular endothelial cells. As to the kind of experiment: Human umbilical vascular endothelial cells proliferation assay. As to conditions: for IC50: Homo sapiens, Endothelial cell. The assay is classed as cell-based. How it is done:
Human Umbilical Vascular Endothelial Cells Proliferation Assay: Human umbilical vascular endothelial cells were thawed and grown in EGM2 medium until passage 3 to 6 for all proliferation assays. Human umbilical vascular endothelial cells were trypsinized, washed with 20% FBS/M199 medium and plated with the same medium at 10^4 cells/100 μL per well to 96-well cell culture plates. The plates were incubated overnight at 37° C. to allow cells to adhere. The cells were then starved in 1% FBS/M199 medium for 18 hours after washing with the same medium 3 times. For optimization of the concentration of the growth factors in the HUVEC proliferation assay, 100 μL/well of the 2× serial diluted growth factors, starting at 100 ng/mL, were added to HUVECs in duplicate for 72 hours at 37° C. in a humidified cell culture incubator with 5% CO2. For analysis of test compounds, a serial dilution of the test compounds in 0.4% DMSO/1% FBS/M199 medium in duplicate was made from the 10 mM stock. Fifty microliters per well of the serially diluted test compounds (10, 1.0, 0.1, 0.01, 0.001, 0.0001, 0.00001 μM) were added to the cells for 1 to 2 hours at 37° C. The final DMSO concentration in the cells is 0.1%. Then 50 μL of 4× final concentration of relative growth factors was added to each well in duplicate for 72 hours at 37° C. in a humidified cell culture incubator with 5% CO2. Thymidine incorporation was measured by adding one microcurie of 3H-thymidine (Amersham) in 20 μL medium to each well and incubated at 37° C. in a humidified cell culture incubator with 5% CO2 for 5 to 6 hours. The cells were then trypsinized and harvested onto UniFilter GF/C filter plates (Perkin Elmer) by using the cell harvester (Tomtec). After the plates were air dried, 20 µL/well of Microscint 20 (Packard) was added then the plates were analyzed in TopCount NXT (Packard). Each well was counted for one minute. The experiments were performed in duplicate in each of 3 donors.
The percentage inhibition of cell proliferation, tube formation, migration, and invasion was calculated by subtracting the result for unstimulated DMSO control from test sample results, averaging all replicates, and normalizing to the growth factor-stimulated DMSO control (0% inhibition). The IC50 values were calculated by using GraphPad Prism 5.0.

Setting [8] is: read-out: bFGF (10 ng/mL) IC50 Values (μM), bFGF-induced proliferation.
Where [9] appears, read: HGF-induced proliferation, read-out: HGF (25 ng/mL) IC50 Values.
The mark [10] stands for this setting: VEGF-induced proliferation, read-out: VEGF (25 ng/mL) IC50 Values.
Setting [11] is: LPS 1 ng/ml, 18 hours, read-out: GM-CSF IC50.

Read-outs that look alike come from different tables or passages of the source.

`O=C1CCC(N2Cc3c(OCc4ccc(CN5CCOCC5)cc4)cccc3C2=O)C(=O)N1` (racemic) [Racemate, 3-[4-(4-morphlin-4-ylmethylbenzyloxy)-1-oxo-1,3-dihydro-isoindo-2-yl]piperidine-2,6-dione]: the IC50 was > 10 µM in assay [1]; 1.8 nM in assay [2]; 0.0092 µM in assay [3] (18 h, read-out: GM-CSF IC50 (μM)); > 10 µM in assay [6]; 99 µM in assay [7] (setting [8]); 24 µM in assay [7] (setting [9]). In assay [7] (setting [10]), the IC50 was > 100 µM. In addition, the “RANTES Mean % of Control” value in assay [4] was 153 % of control. For the same compound, the “MCP-1 Mean % of Control” value in assay [5] was 208 % of control. Besides, the “VEGF-, bFGF-, or HGF-induced HUVEC proliferation” value in assay [7] is “did not inhibit”. The “concentrations with significant enhancement of proliferation” value in assay [7] (bFGF-treated HUVECs) fell in the range of 0.01 to 1 µM.
For the compound `O=C1CC[C@@H](N2Cc3c(OCc4ccc(CN5CCOCC5)cc4)cccc3C2=O)C(=O)N1` [R-enantiomer, (R)-3-[4-(4-morphlin-4-ylmethylbenzyloxy)-1-oxo-1,3-dihydro-isoindo-2-yl]piperidine-2,6-dione], the IC50 in assay [1] is > 10 µM; in assay [2] it was 9.5 nM; in assay [3] (setting [11]) it was 0.039 µM; in assay [6], > 10 µM; in assay [7] (setting [8]), 76 µM; in assay [7] (setting [9]), 38 µM. Moreover, the IC50 in assay [7] (setting [10]) was > 100 µM. Moreover, in assay [4], the “RANTES Mean % of Control” value is recorded as 151 % of control. Also, the “MCP-1 Mean % of Control” value in assay [5] is recorded as 223 % of control. In assay [7], the “VEGF-, bFGF-, or HGF-induced HUVEC proliferation” value is listed as “did not inhibit”.
Turning to `O=C1CC[C@H](N2Cc3c(OCc4ccc(CN5CCOCC5)cc4)cccc3C2=O)C(=O)N1` [Test compound, (S)-3-[4-(4-morphlin-4-ylmethylbenzyloxy)-1-oxo-1,3-dihydro-isoindo-2-yl]piperidine-2,6-dione], the IC50 is > 10 µM in assay [1]; 0.59 nM in assay [2]; 0.0022 µM in assay [3] (setting [11]); > 10 µM in assay [6]; 52 µM in assay [7] (setting [8]); 51 µM in assay [7] (setting [9]). Besides, the IC50 in assay [7] (setting [10]) was > 100 µM. For the same compound, the “RANTES Mean % of Control” value in assay [4] was 153 % of control. The “MCP-1 Mean % of Control” value in assay [5] was 233 % of control. Besides, the “VEGF-, bFGF-, or HGF-induced HUVEC proliferation” value in assay [7] is on record as “did not inhibit”. The “concentrations with significant enhancement of proliferation” value in assay [7] (VEGF-treated HUVECs) was 1 to 10 µM.
